Reference: paper PMC12036197, “Green synthesis of PEGylated iron oxide nanoparticles of Eriobotrya japonica leaves extract in combination with B3, against Plasmodium falciparum 3D7 strain” (Tropical Medicine and Health, 2025)

Assays:
[1] = test system: Plasmodium falciparum 3D7; assay: Growth inhibition of Plasmodium falciparum 3D7 in RPMI 1640 culture medium, single drugs; type: cell-based; conditions: for Growth inhibition rate: highest growth inhibition, RPMI 1640, 24 h
Description: Plates with a capacity of 4 ml or T25 culture flasks were employed for the cultivation of parasites. CCM culture medium and blood (to sustain a hematocrit of 10% within the culture medium for the proliferation and replication of the parasite) were supplemented into the dishes. […] Parasites were multiplied in a CCM medium containing 10% hematocrit with O + human erythrocyte and albumax (0.5%) serving as a growth factor. The culture plates were incubated at 37 °c in a candle jar, with the fresh medium being replenished every 48 h. A thin blood smear was prepared from the sediment collected from each plate, followed by the quantification of parasites on 10,000 red blood cells.
To investigate the effect of drugs on the culture medium, two stages were conducted. The effect of the drug was performed when 80% of the parasites were in the ring stage and the parasitemia was 6%. […] In the first step, the drugs were treated separately and their IC50 was measured. For plant extract, dilutions of 100, 200, 400 and 800 µg/mL (dry extract) of culture medium were done in 12 wells of a 96-well plate (in triplicate).
For polyethylene glycol, dilutions of 10, 100, 1000 and 10000 µg/mL of culture medium were done in 12 wells of a 96-well plate (in triplicate). For the nanoparticle produced by the PEGylated green synthesis method (PEG-HNPs) dilutions of 50, 100, 200, and 400 µg/mL culture medium were done in 12 wells of 96-well plates (in triplicate). In the second step, the effect of the IC50 combination of drugs with each other was investigated by the Fix ratio method on the culture medium. In this way, the percentage ratio of 0, 10, 30, 50, 70, 90, and 100 of one drug was combined with another drug and it was given an effect on the culture medium, and their synergistic and antagonistic effect was investigated by affecting the amount of parasitemia. Negative control consisted of 15 μL of freshly washed RBC plus 85 μL of CCM. […] Statistical analysis was done using GraphPad prism9 software and the results were analyzed with one-way ANOVA. […]

red blood cells = assay: Hemolytic test; type: cell-based, human; conditions: 3 h incubation
Description: To conduct the hemolytic test on the hydroalcoholic extract of […], nicotinamide, and green-synthesized nanoparticles, 5 mL of fresh whole blood with heparin anticoagulant was obtained from a healthy volunteer. After centrifugation and washing with PBS, 1% blood suspension was prepared. In each well of three microplates, 100 µL of the prepared blood was added. Subsequently, 100 µL of the hydroalcoholic extract, nicotinamide, and green-synthesized nanoparticles with concentrations of 0.1, 1, 10, 50, 100 and 200 µg/mL, were added into the second to seventh wells of all three microplates, respectively. The first wells served as negative controls, containing an equal volume of PBS, while the eighth wells were positive controls, containing 100 µL of Triton X-100. After 3 h of incubation and centrifugation, the optical absorbance of the supernatant was measured at a wavelength of 540 nm. The percentage of drug-induced hemolysis was calculated using the following formula [28]: Percenthemolysis%=ODtest-ODnegativecontrol/ODpositivecontrol-ODnegativecontrol×100.
Investigating the hemolytic effect of Eriobotrya japonica hydroalcoholic extract (herbal extract), nicotinamide (NAM), and PEGylated green synthesized iron oxide nanoparticles (HNPs) on red blood cells at concentrations of 0.1, 1, 10, 50, 100 and 200 µg/mL were evaluated (Table 3). The optical absorbance of PBS was measured as negative control 0.01 and the optical absorbance of Triton X-100 was measured as positive control 1.00 (Fig. 5).

CCN(CC)CCCC(C)Nc1ccnc2cc(Cl)ccc12 (stereo not drawn) [CQ, chloroquine diphosphate]
inhibition at 8 µg/mL ([1]; Plasmodium falciparum, 3D7, 24 h, read-out: Growth inhibition rate): 95%

NC(=O)c1cccnc1 [NAM, nicotinamide]
Growth inhibition rate ([1]; concentration 3000 µg/ml): 94%
Percentage of drug hemolysis (red blood cells; drug concentration 0.1 µg/mL): 1%
Percentage of drug hemolysis (red blood cells; drug concentration 1 µg/mL): 2%
Percentage of drug hemolysis (red blood cells; drug concentration 10 µg/mL): 4%
Percentage of drug hemolysis (red blood cells; drug concentration 50 µg/mL): 6%
Percentage of drug hemolysis (red blood cells; drug concentration 100 µg/mL): 8%
Percentage of drug hemolysis (red blood cells; drug concentration 200 µg/mL): 9%

polyethylene glycol 600 [PEG]
Growth inhibition rate ([1]; concentration 10000 µg/ml): 71%
